Measurements reported in patent US20230055953A1, “AGENT FOR ADJUVANT THERAPY” (TAIHO PHARMACEUTICAL CO., LTD., priority 2019, published 2023).

System: B16F10.A24/SART2^93-101 cells
Assay: Lung metastatic model: intravenous transplantation of B16F10.A24/SART2^93-101 cells, count of metastatic pulmonary nodules
Assay type: in vivo, mouse
Details: B2m^tm2(HLA-A24/H-2Db/B2M)Tai mice; emulsion with Montanide ISA 51 VG subcutaneously on Day 1, Day 8, Day 15; lungs resected Day 28; compared with control group, p=0.0014, Student's t-test
Description: Eleven-week-old B2m^tm2(HLA-A24/H-2Db/B2M)Tai mice (J. Immunol.: 198, 516-527, 2017) were randomly divided into groups each consisting of 10 mice. The day of grouping was designated Day 0.
The B16F10.A24/SART2^93-101 cells (PLoS One: 13, e0199249, 2018) were cultured using the Dulbecco's Modified Eagle's Medium (Sigma-Aldrich) containing 10% FBS. The B16F10.A24/SART2^93-101 cells were subjected to subculture in an incubator at 37° C. in the presence of 5% CO2 two times a week at a ratio of 1:25 to 1:40.
On the day of grouping of mice (Day 0), the B16F10.A24/SART2^93-101 cell suspension prepared using D-PBS (FUJIFILM Wako Pure Chemical Corporation) was transplanted into the tail veins of mice at 1×10^6 cells/0.1 ml.
The mouse models are found to undergo recurrence of tumor cells transplanted into the blood in the lung. Accordingly, such mouse models can be regarded as simulating the recurrence mechanism caused by cancer metastasis in humans. By verifying the effects in such models, accordingly, the inhibitory effects on tumor metastasis and recurrence can be verified. […]
The lungs were resected 28 days after transplantation of the B16F10.A24/SART2^93-101 cells (Day 28), and the number of metastatic pulmonary nodules was visually counted.

## PEP5-RR-PEP9-RR-PEP6-RR-PEP4 (DYSARWNEIRRQIRPIFSNRRRVYDYNCHVDLRRLLQAEAPRL) [TPV06]
  number of metastatic pulmonary nodules: significantly reduced
